As usually defined, the IC50 is the concentration that gives 50% inhibition. Usually Ki stands for a dissociation constant, usually derived from enzyme kinetics or from competition with a known ligand. By inhibition is commonly meant the percentage by which the read-out fell short of the control.

Read-outs that look alike come from different tables or passages of the source.

A short description of test [1]: ABTS cation radical decolorisation assay. Particulars: 6 min at room temperature, 734 nm; mean ± SD of three measurements. How it is done: The percent inhibition of decolorisation of ABTS [2,2′-azino-bis(3-ethylbenzothiazoline-6-sulfonic acid)] cation radical is obtained as a function of time and concentration and evaluated by comparison with the BHT and BHA compounds used as standard[35]^,[36]. The tested compounds at different concentrations are added to each well and 160 µL of 7 mM ABTS solution is added. After 6 min at room temperature, the absorbances were measured at 734 nm. ABTS cation radical decolorisation activities were determined by using the equation below: %Inhibition = (Acontrol−Asample)/Acontrol × 100 where A is the absorbance. Tests were carried out in triplicate. BHA and BHT were used as positive control.

A short description of test [2]: DPPH radical scavenging assay. The following applies: 30 min in the dark, 517 nm; mean ± SD of three measurements; read-out: IC50 DPPH Free Radical. The procedure: The DPPH (2,2-diphenyl-1-picrylhydrazyl) radical scavenging activity of the synthesised compounds was determined by a spectrophotometric method based on the reduction of an ethanol solution of DPPH[33]^,[34]. 2, 5, 10, 20 µL of 1 mM stock solution of each compound was completed to 40 µL with the DMSO and mixed with 160 µL of 0.1 mM of DPPH free radical solution. The mixture was led to stand for 30 min in the dark and the absorbance was then measured at 517 nm against a blank. Inhibition of free radical, DPPH, in percent (I %), was calculated according to the formula: I %=(Acontrol−Asample)/Acontrol×100 where Acontrol is the absorbance of the control reaction (containing all reagents except for the tested compounds), and Asample is the absorbance of the test compounds. Tests were carried out in triplicate. BHA and BHT were used as positive control.

The target of the next test is T1, hCA IX (Homo sapiens, UniProt Q16790).
T1 construct: made in house
Nature of the test: biochemical. Particulars: stopped flow CO2 hydrase assay; mean from 3 assays, errors ± 5–10%.

The next test is described as follows: Metal chelating activity. The following applies: ferrous chloride/ferrozine, 562 nm; mean ± SD of three measurements; read-out: IC50 Metal Chelate. How it is done: The chelating ability of synthesised compounds was examined according to the method of Dinis et al.[37]. The tested compounds at different concentrations were added to each well and 4 µL of 2 mM ferrous (II) chloride was added. Then 8 µL of 5 mM ferrozine was added and the reaction was started. After 10 min at room temperature, the absorbance was measured at 562 nm against a blank. The results were expressed as a percentage of inhibition of the ferrozine-Fe^2+ complex formation. The percentage inhibition of the ferrozine -Fe^2+ complex formation was calculated using the formula given below: Chelating ability (%)=(Acontrol−Asample)/Acontrol×100 where A is the absorbance. Tests were carried out in triplicate. EDTA was used as a positive control.

The next test has as its target T2, hCA II (Homo sapiens, UniProt P00918).
T2 construct: made in house
Description: CA inhibition, stopped flow CO2 hydrase assay. Format: biochemical. The following applies: mean from 3 assays, errors ± 5–10%. How it is done: (§1) An SX.18 MV-R Applied Photophysics (Oxford, UK) stopped-flow instrument has been used to assay the inhibition of various CA isozymes. Phenol Red (at a concentration of 0.2 mM) has been used as an indicator, working at the absorbance maximum of 557 nm, with 10 mM Hepes (pH 7.4) as a buffer, 0.1 M Na2SO4 or NaClO4 (for maintaining constant the ionic strength; […]. Stock solutions of inhibitors were prepared at a concentration of 10 mM (in DMSO-water 1:1, v/v) and dilutions up to 0.01 nM done with the assay buffer mentioned above. At least 7 different inhibitor concentrations have been used for measuring the inhibition constant. Inhibitor and enzyme solutions were pre-incubated together for 10 min at room temperature before assay, to allow for the formation of the E-I complex. Triplicate experiments were done for each inhibitor concentration, and the value reported throughout the paper is the mean of such results. The inhibition constants were obtained by nonlinear least-squares methods using the Cheng-Prusoff equation, as reported earlier, and represent the mean from at least three different determinations1[27–32]. All CA isozymes used here were recombinant proteins obtained as reported earlier by our group.

The target in the next test is T3, hCA XII (Homo sapiens, UniProt O43570).
T3 construct: made in house
Description: CA inhibition, stopped flow CO2 hydrase assay. The following applies: mean from 3 assays, errors ± 5–10%. It is filed as biochemical. How it is done:
as §1

For a further test, the system named is Tyrosinase from mushroom. Nature of the test: Anti-tyrosinase activity (diphenolase, L-DOPA substrate). Format: biochemical. The following applies: at 200 µM. The procedure:
Anti-tyrosinase activity of the compounds was performed according to the method designed by Hearing and Jimenez[39]. Firstly, the inhibition of diphenolase function of the compounds was evaluated and L-DOPA was used as substrate. Tyrosinase from mushroom (E.C. 1.14.18.1) (30 U, 28 nM) was dissolved in Na-phosphate buffer (pH = 6.8, […]) and the compounds were added to the solution for pre-incubation at room temperature for ten minutes. After incubation, 0.5 mM L-DOPA was added to the mixture and the change in absorbance was measured at 475 nm at 37 °C. For positive control, kojic acid was used. The following formula was used to calculate the percentage of all enzyme inhibitions: Inhibition (%) = (Acontrol–Asample)/Acontrol × 100

The target of a further test is T4, hCA VII (Homo sapiens, UniProt P43166).
T4 construct: made in house
Description: biochemical. The following applies: stopped flow CO2 hydrase assay; mean from 3 assays, errors ± 5–10%.

A further test concerns the target T5, hCA IV (Homo sapiens, UniProt P22748).
T5 construct: made in house
Nature of the test: biochemical. Particulars: stopped flow CO2 hydrase assay; mean from 3 assays, errors ± 5–10%.

The target of the next test is T6, hCA I (Homo sapiens, UniProt P00915).
T6 construct: made in house
Nature of the test: biochemical. The following applies: stopped flow CO2 hydrase assay; mean from 3 assays, errors ± 5–10%.

For the next test, the target named is BChE (Homo sapiens, UniProt P06276). Nature of the test: Anticholinesterase assay (Ellman), BChE. It is filed as biochemical. The following applies: read-out: BChE assay % inhibition. The procedure:
The inhibitory effect of novel calix[4]azacrown substituted sulphonamide Schiff bases CX(1–6) on AChE and BChE activities was determined according to the slightly modified spectrophotometric method of Ellman et al.[38]. All compounds were dissolved in DMSO to prepare stock solutions at 4 mM concentration. Aliquots of 150 µL of 100 mM sodium phosphate buffer (pH 8.0), 10 µL of sample solution and 20 µL AChE (or BChE) solution were mixed and incubated for 15 min at 25 °C, and DTNB [5,5′-Dithio-bis(2-nitro-benzoic)acid] (10 µL) is added. The reaction was then initiated by the addition of acetylthiocholine iodide (or butyrylthiocholine iodide) (10 µL). […]. Tests were carried out in triplicate. Galantamine was used as positive control.
(In general: DTNB colorimetry detects thiols as they appear.)

T6 sequence (P00915 whole entry): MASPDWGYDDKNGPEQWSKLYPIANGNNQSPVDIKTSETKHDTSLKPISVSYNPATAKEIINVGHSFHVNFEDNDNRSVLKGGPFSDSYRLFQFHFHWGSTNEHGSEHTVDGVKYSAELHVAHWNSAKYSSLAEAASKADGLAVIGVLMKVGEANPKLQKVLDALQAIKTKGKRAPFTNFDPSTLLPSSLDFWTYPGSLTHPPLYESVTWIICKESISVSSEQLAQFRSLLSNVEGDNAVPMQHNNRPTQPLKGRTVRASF
T4 sequence (P43166 whole entry): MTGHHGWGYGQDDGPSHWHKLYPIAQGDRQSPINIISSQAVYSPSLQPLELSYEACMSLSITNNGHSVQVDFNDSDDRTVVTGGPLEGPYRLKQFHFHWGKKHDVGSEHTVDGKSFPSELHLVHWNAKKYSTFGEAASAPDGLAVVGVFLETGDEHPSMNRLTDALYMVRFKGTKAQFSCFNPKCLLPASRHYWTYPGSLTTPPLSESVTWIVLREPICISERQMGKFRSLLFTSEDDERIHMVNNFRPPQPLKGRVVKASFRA
T3 sequence (O43570 25-354): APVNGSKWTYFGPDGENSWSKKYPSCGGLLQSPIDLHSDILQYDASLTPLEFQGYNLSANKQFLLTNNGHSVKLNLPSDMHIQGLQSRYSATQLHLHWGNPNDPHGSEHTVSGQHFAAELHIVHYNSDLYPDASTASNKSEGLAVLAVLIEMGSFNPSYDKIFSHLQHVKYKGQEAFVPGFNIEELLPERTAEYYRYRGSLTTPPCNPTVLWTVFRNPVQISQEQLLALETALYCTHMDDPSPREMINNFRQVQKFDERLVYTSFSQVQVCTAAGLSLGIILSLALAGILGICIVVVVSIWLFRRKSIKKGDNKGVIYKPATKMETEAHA
T5 sequence (P22748 19-312): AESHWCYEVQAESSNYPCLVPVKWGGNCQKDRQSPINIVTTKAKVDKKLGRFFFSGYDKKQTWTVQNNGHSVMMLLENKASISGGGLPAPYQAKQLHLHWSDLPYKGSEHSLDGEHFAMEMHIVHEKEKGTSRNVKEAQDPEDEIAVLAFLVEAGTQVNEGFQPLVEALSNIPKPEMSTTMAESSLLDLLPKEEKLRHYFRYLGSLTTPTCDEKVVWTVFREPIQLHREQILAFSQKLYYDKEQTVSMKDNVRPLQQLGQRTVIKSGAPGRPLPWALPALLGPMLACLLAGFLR
Sequence of BChE (P06276 29-602): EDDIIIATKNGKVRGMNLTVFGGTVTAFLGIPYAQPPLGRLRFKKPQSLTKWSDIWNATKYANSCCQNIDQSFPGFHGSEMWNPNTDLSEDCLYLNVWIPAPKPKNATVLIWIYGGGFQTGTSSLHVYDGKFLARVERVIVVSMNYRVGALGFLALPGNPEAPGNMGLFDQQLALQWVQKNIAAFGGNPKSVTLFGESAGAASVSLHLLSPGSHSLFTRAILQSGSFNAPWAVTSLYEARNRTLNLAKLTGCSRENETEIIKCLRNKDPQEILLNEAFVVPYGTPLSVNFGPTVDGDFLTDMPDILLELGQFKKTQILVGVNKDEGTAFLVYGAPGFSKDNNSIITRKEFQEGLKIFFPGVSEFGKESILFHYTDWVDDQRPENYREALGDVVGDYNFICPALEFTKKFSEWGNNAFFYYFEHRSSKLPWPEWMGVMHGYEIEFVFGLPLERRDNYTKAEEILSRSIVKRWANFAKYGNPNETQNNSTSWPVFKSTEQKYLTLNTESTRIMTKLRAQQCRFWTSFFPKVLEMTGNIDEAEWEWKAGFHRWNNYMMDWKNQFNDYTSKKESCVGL
Description for hCA IV: (§2) An SX.18 MV-R Applied Photophysics (Oxford, UK) stopped-flow instrument has been used to assay the inhibition of various CA isozymes[26]. […] The inhibition constants were obtained by nonlinear least-squares methods using the Cheng-Prusoff equation, as reported earlier, and represent the mean from at least three different determinations1[27–32].
Description for hCA IX: as §2
Description for hCA VII: as §2

For `COc1ccc(O)c(C(C)(C)C)c1` [BHA, reference compound], the IC50 stood at 17.59 ± 0.1 µM in [1] and 7.88 ± 0.2 µM in [2].
The matching figures for `Cc1cc(C(C)(C)C)c(O)c(C(C)(C)C)c1` [BHT, reference compound]: 13.2 ± 0.27 µM and 58.86 ± 0.5 µM.
Take `CC(C)(C)c1cc2c3c(c1)Cc1cc(C=Nc4ccc(S(N)(=O)=O)cc4)cc(c1O)Cc1cc(C(C)(C)C)cc(c1OCC(=O)NCCNC(=O)CO3)Cc1cc(C=Nc3ccc(S(N)(=O)=O)cc3)cc(c1O)C2` [CX-1]: the Ki at hCA IX is 0.15 µM; on hCA II it was 0.82 µM; on hCA XII, 0.27 µM; at hCA VII it was 1.21 µM; at hCA IV, 4.36 µM; at hCA I, 5.55 µM. The IC50 is 769.97 ± 0.22 µM in [1], > 1000 µM in “Metal chelating activity” and > 1000 µM in test [2]. Moreover, the “Tyrosinase activity % inhibition” value in the test on Tyrosinase from mushroom was determined as 24.46 ± 0.53%.
On to `Cc1cc(NS(=O)(=O)c2ccc(/N=C/c3cc4c(O)c(c3)Cc3cc(C(C)(C)C)cc5c3OCC(=O)NCCNC(=O)COc3c(cc(C(C)(C)C)cc3Cc3cc(/C=N/c6ccc(S(=O)(=O)Nc7cc(C)on7)cc6)cc(c3O)C5)C4)cc2)no1` [CX-2], for which the Ki is 67.6 µM on hCA IX; > 100 µM at hCA II; > 100 µM on hCA XII; > 100 µM at hCA VII; > 100 µM on hCA IV; > 100 µM on hCA I. Further, the IC50 (in test [1]; in “Metal chelating activity”; in test [2]) was > 1000 µM throughout. The “Tyrosinase activity % inhibition” value in the test on Tyrosinase from mushroom is on record as 19.55 ± 0.43%.
Turning to `CC(C)(C)c1cc2c3c(c1)Cc1cc(C=Nc4ccc(S(=O)(=O)Nc5ncccn5)cc4)cc(c1O)Cc1cc(C(C)(C)C)cc(c1OCC(=O)NCCNC(=O)CO3)Cc1cc(C=Nc3ccc(S(=O)(=O)Nc4ncccn4)cc3)cc(c1O)C2` [CX-3], the Ki on hCA IX is 46 µM; on hCA II it was > 100 µM; at hCA XII it was 10.2 µM; at hCA VII, > 100 µM; at hCA IV it was > 100 µM; on hCA I it was > 100 µM. In addition, the IC50 was 121 ± 0.95 µM in [1], > 1000 µM in “Metal chelating activity” and > 1000 µM in test [2]. Besides, the “Tyrosinase activity % inhibition” value in the test with Tyrosinase from mushroom was 35.52 ± 0.82%.
Take `CC(C)(C)c1cc2c3c(c1)Cc1cc(C=Nc4ccc(S(=O)(=O)Nc5nc6ccccc6s5)cc4)cc(c1O)Cc1cc(C(C)(C)C)cc(c1OCC(=O)NCCNC(=O)CO3)Cc1cc(C=Nc3ccc(S(=O)(=O)Nc4nc5ccccc5s4)cc3)cc(c1O)C2` [CX-4]: the Ki at hCA IX, at hCA II, on hCA XII, at hCA VII, at hCA IV and on hCA I was > 100 µM each time. The values for the IC50 (in [1]; in the test “Metal chelating activity”; in test [2]) were > 1000 µM, > 1000 µM and 520.3 ± 0.89 µM, respectively. Moreover, the “Tyrosinase activity % inhibition” value in the test with Tyrosinase from mushroom amounted to 16.48 ± 0.21%.
Take `Cc1ccc(S(=O)(=O)NN=Cc2cc3c(O)c(c2)Cc2cc(C(C)(C)C)cc4c2OCC(=O)NCCNC(=O)COc2c(cc(C(C)(C)C)cc2Cc2cc(C=NNS(=O)(=O)c5ccc(C)cc5)cc(c2O)C4)C3)cc1` [CX-5]: the Ki on hCA IX, at hCA II, on hCA XII, on hCA VII, on hCA IV and on hCA I was > 100 µM in each case. Further, the results for the IC50 (in test [1]; in “Metal chelating activity”; in test [2]) were 9.79 ± 0.09 µM, > 1000 µM and 16.8 ± 0.85 µM, respectively. In the test with Tyrosinase from mushroom, the “Tyrosinase activity % inhibition” value is “no activity”.
For `CC(=O)Nc1ccc(S(=O)(=O)NN=Cc2cc3c(O)c(c2)Cc2cc(C(C)(C)C)cc4c2OCC(=O)NCCNC(=O)COc2c(cc(C(C)(C)C)cc2Cc2cc(C=NNS(=O)(=O)c5ccc(NC(C)=O)cc5)cc(c2O)C4)C3)cc1` [CX-6], the Ki at hCA IX was 64.6 µM; on hCA II, > 100 µM; on hCA XII it was > 100 µM; on hCA VII it was > 100 µM; on hCA IV, > 100 µM; at hCA I, > 100 µM. Moreover, the IC50 is 7.74 ± 0.04 µM in [1], > 1000 µM in “Metal chelating activity” and 9.02 ± 0.05 µM in test [2]. Also, the “Tyrosinase activity % inhibition” value with Tyrosinase from mushroom stood at 28.15 ± 0.74%. Further, the inhibition at 200 µM at BChE (at 200 µM) was 35.4 ± 0.9%.
`O=C(O)CN(CCN(CC(=O)O)CC(=O)O)CC(=O)O` [EDTA, reference compound]: the IC50 in the test “Metal chelating activity” amounted to 26.82 ± 0.1 µM.
Regarding `COc1ccc2c3c1O[C@H]1C[C@@H](O)C=C[C@@]31CCN(C)C2` [Galantamine, reference compound], the inhibition at 200 µM on BChE was determined as 76.5 ± 1.28%.
Turning to `O=c1cc(CO)occ1O` [Kojik acid, kojic acid, reference compound], the “Tyrosinase activity % inhibition” value with Tyrosinase from mushroom is reported as 95.26 ± 0.23%.

These data come from publication PMC7269057, “Synthesis of calix[4]azacrown substituted sulphonamides with antioxidant, acetylcholinesterase, butyrylcholinesterase, tyrosinase and carbonic anhydrase inhibitory action” (Journal of Enzyme Inhibition and Medicinal Chemistry, 2020).
